# Test results taken from patent US12624068B2, “Exon skipping by peptide nucleic acid derivatives” (OliPass Corporation, priority 2016, dated 2026).
# {Fethoc} = N-terminal Fethoc capping group (publication's abbreviation); [C(1O2)] = modified PNA monomer acting as cytosine, C(pOq) type, 1O2; [A(5)] = modified PNA monomer acting as adenine, A(p) type, p=5; [G(6)] = modified PNA monomer acting as guanine, G(p) type, p=6; {NH2} = C-terminal non-substituted amino (amide) group
# What was measured:
# [1] = tested on: melanogenesis in B16F10 cells; assay: Melanin content (melanogenesis) in B16F10 cells; assay type: cell-based, mouse; details: 24 hours
# Description: “TYR-ASO 4” was evaluated for its ability to inhibit the melanogenesis in B16F10 cells as described below.
# B16F10 cells grown in 60 mm culture dish containing 5 mL culture medium were treated either with “TYR-ASO 4” at 0 (negative control) or 1 to 1,000 aM, or with 10 or 100 μg/mL arbutin as a positive control. (2 culture dishes per dose) 24 hours later, the cells were subjected to lysis with 200 μL 1N NaOH. Each lysate was collected in 1.5 mL e-tube, and kept overnight at room temperature. The melanin content in each lysate was determined by absorbance at 475 nm on an ELISA reader. The experiment was repeated four times using cells at different passage. The four sets of the melanin content data were pooled for statistical analysis by student's t-test against the melanin content without treatment (negative control).
# [2] = tested on: human PD-1 mRNA; assay: PD-1 nested qPCR in Jurkat cells; assay type: cell-based; details: 24 hours; for decrease of PD-1 mRNA level (nested qPCR): activated Jurkat cells
# Description: [Cell Culture & ASO Treatment] Jurkat cells grown in 60 mm culture dish were activated with an anti-CD3 antibody (Cat. Number 16-0037, eBioscience) at […] and an anti-CD28 antibody (Cat. No. 16-0289, eBioscience) at 0.5 μg/mL for 48 hours. Then the culture medium was replaced with fresh medium, and treated with “PD-ASO 3” at 0 (negative control), 10, 100 or 1,000 aM for 24 hours. (4 culture dishes per ASO concentration) [RNA Extraction and cDNA Synthesis by One Step RT-PCR] Total RNA was extracted using RNAeasy mini prep kit (Qiagen, USA) according to the manufacturer's protocol. […] NO: 157); and PD-exon 5_reverse: (5'→3') […] NO: 158)]. Cycle conditions: 50° C. for 30 minutes and 94° C. for 2 minutes, which was followed by 30 cycles of 30 seconds at 94° C., 30 seconds at 53° C., and 1 minutes at 72° C. [Nested qPCR by SYBR] […] NO: 159); and PD-exon 2_reverse: (5'→3') […] NO: 160)] according to the following cycle conditions: 20 seconds at 95° C., 30 seconds at 56° C., and 40 seconds at 72° C. for 40 cycles. The qPCR reaction was probed with SYBR (Bio-Rad, USA).
# [3] = tested on: human PD-1 pre-mRNA; assay: PD-1 nested PCR for exon skipping in Jurkat cells; assay type: cell-based; details: 5 hours
# Description: “PD-ASO 3” was evaluated for its ability to induce the skipping of the human PD-1 exon 2 in Jurkat cells as follows. [Cell Culture & ASO Treatment] Jurkat cells (Cat. Number TIB-152, ATCC) were maintained in RPMI-1640 supplemented with 10% FBS and 1% streptomycin/penicillin. Jurkat cells grown in 60 mm culture dish containing 5 mL culture medium were treated for 5 hours with “PD-ASO 5” at 0 (negative control), 10, 100 or 1,000 aM. [RNA Extraction and cDNA Synthesis by One Step RT-PCR] Total RNA was extracted using RNAeasy mini prep kit (Qiagen, USA) according to the manufacturer's protocol. […] NO: 153); and PD-exon 5_reverse: (5'→3') […] NO: 154)]. Cycle conditions: 50° C. for 30 minutes and 94° C. for 2 minutes, which was followed by 30 cycles of 30 seconds at 94° C., 30 seconds at 53° C., and 1 minutes at 72° C. [Nested PCR Amplification] 1 μL of cDNA diluted by 100× was further amplified in a 20 μL nested PCR (Invitrogen, USA) using the following cycle conditions: 20 seconds at 95° C., 30 seconds at 56° C., and 40 seconds at 72° C. for 40 cycles against a set of exon-specific primers [PD-exon 1n_forward: (5'→3') […] NO: 155); and PD-exon 5n_reverse: (5'→3') […] NO: 156)]. [Identification of Exon Skipping Products] The resulting nested PCR products were subjected to electrophoretic separation on a 2% agarose gel. The bands of target size were collected and analyzed by Sanger sequencing.
# [4] = tested on: human IL-2 mRNA; assay: IL-2 qPCR in Jurkat cells; assay type: cell-based; details: 24 hours
# Description: Down-regulation of the PD-1 activity has been known to upregulate the expression of interleukin 2 (IL-2). [Am. J. Clin. Oncol. Vol 39(1), 98-106 (2016)] […] [Cell Culture & ASO Treatment] Jurkat cells grown in 60 mm culture dish were activated with an anti-CD3 antibody (Cat. Number 16-0037, eBioscience) at 1 μg/mL and an anti-CD28 antibody (Cat. No. 16-0289, eBioscience) at 0.5 μg/mL for 48 hours. Then the culture medium was replaced with fresh medium, and treated with “PD-ASO 3” at 0 (negative control), 10, 100 or 1,000 aM for 24 hours. (4 culture dishes per ASO concentration) [RNA Extraction and cDNA Synthesis] Total RNA was extracted using RNeasy mini prep kit (Qiagen, USA) according to the manufacturer's protocol. […] [qPCR by SYBR] 1 μL of each cDNA solution was subjected to a 20 μL qPCR amplifications against a set of primers targeting the IL-2 mRNA [IL-2_forward: (5'→3') […] NO: 161); and IL-2_reverse: (5'→3') […] NO: 162)] according to the following cycle conditions: 20 seconds at 95° C., 30 seconds at 56° C., and 40 seconds at 72° C. for 40 cycles. The qPCR reaction was probed with SYBR (Bio-Rad, USA).
# [5] = tested on: human IDO1 pre-mRNA; assay: IDO1 nested PCR for exon skipping in SKOV3 cells; assay type: cell-based; details: 48 hours
# Description: “IDO-ASO 1” was evaluated for its ability to induce exon skipping in SKOV3 cells (Cat. Number HTB-77, ATCC) by IDO1 nested PCR as follows. [Cell Culture & ASO Treatment] SKOV3 (human ovary adenocarcinoma) cells were subcultured in 60 mm culture dish containing 5 mL McCoy's 5A modified medium supplemented with 10% FBS, 1% streptomycin/penicillin, 1% L-glutamine, and 1% sodium pyruvate under 5% CO2 at 37° C., and treated with “IDO-ASO 1” for 48 hours at 0 zM (negative control), 10 zM, 100 zM or 1 aM. [RNA Extraction & cDNA Synthesis by One-Step RT-PCR] Total RNA was extracted from the cells using “Universal RNA Extraction Kit” (Cat. Number 9767, Takara) according to the manufacturer's instructions. […] NO: 114); and IDO-exon 10_reverse: (5'→3') […] [Nested PCR Amplification] 1 μL of cDNA was further amplified in a 20 μL nested PCR reaction (Cat. No. K2612, Bioneer) against a set of exon-specific primers [IDO-exon 4_forward: (5'→3') […] NO: 116); and IDO-exon 9_reverse: (5'→3') […] [Identification of Exon Skipping Product] The PCR products were subjected to electrophoretic separation on a 2% agarose gel. The bands of target size were collected and analyzed by Sanger sequencing. […] [ASO Treatment] SKOV3 cells grown in 60 mm culture dish were treated with “IDO-ASO 5” at 0 (negative control), 1, 3, 10, 30 or 100 aM for 48 hours. [cDNA Synthesis by One-step PCR] […] NO: 119); and IDO-exon 8_reverse: (5'→3') […] [Nested PCR Amplification] 1 μL of cDNA was further amplified in a 20 μL nested PCR (Cat. No. K2612, Bioneer) reaction using a set of exon-specific primers [IDO-exon 1n_forward: (5'→3') […] NO: 121); and IDO-exon 8n_reverse: (5'→3') […] “IDO-ASO 6” was evaluated for its ability to induce exon skipping in SKOV3 cells by IDO1 nested PCR as described in “IDO1 Example 3” unless noted otherwise.
# [6] = tested on: secretion of kynurenine in SKOV3 cells; assay: Kynurenine secretion assay in SKOV3 cells; assay type: cell-based, human; details: 24 hours, with 10 ng/mL γ-interferon
# Description: The functional activity of “IDO-ASO 1” was evaluated for its ability to inhibit the secretion of kynurenine in SKOV3 cells as follows.
# [Kynurenine Secretion Assay] […] (3 dishes per concentration) Cells were treated with the ASO along with 10 ng/mL γ-interferon to increase the kynurenine secretion. 24 hours later, 200 μL of the culture medium was sampled from each culture dish and mixed with 100 μL 30% trichloroacetic acid. The mixture was vortexed and subjected to centrifugation at 8,000 g for 5 min. 75 μL of the resulting supernatant was mixed with 75 μL Ehrlich reagent (0.8% p-dimethylamino-benzaldehyde in acetic acid), and the mixture was subjected to a quantification for kynurenine at 490 nm on an ELISA reader. [PLOS One 5(8): e63301 (2013)]
# [7] = activated Jurkat cells, 1,000 aM
compound,measurement,setting,value
OC[C@H]1O[C@@H](Oc2ccc(O)cc2)[C@H](O)[C@@H](O)[C@@H]1O [arbutin],decrease of melanin content,[1]; 10 μg/mL,~15%
same,decrease of melanin content,[1]; 100 μg/mL,25%
"Fethoc-C(1O2)TG(6)-GG(6)G-AG(6)T-CTG-A(5)G-NH2 (CTGGGGAGTCTGAG; splice-switching; all peptide nucleic acid (PNA), [C(1O2)] at 1, [G(6)] at 3, 5, 8, [A(5)] at 13, 5' {Fethoc}, 3' {NH2}; peptide nucleic acid backbone) [PD-ASO 1]",decrease of PD-1 mRNA level (nested qPCR),"[2]; 100 and 1,000 aM",~60%
"Fethoc-CG(6)C-A(5)CC-TG(6)T-CA(5)C-C(1O2)C-NH2 (CGCACCTGTCACCC; splice-switching; all peptide nucleic acid (PNA), [G(6)] at 2, 8, [A(5)] at 4, 11, [C(1O2)] at 13, 5' {Fethoc}, 3' {NH2}; peptide nucleic acid backbone) [PD-ASO 3]",PD-1 exon skipping by nested PCR,"[3]; Jurkat cells, 10 and 100 aM",yielded a PCR product band corresponding to the skipping of exon 2
same,PD-1 exon skipping by nested PCR,"[3]; Jurkat cells, 1,000 aM",the PCR product of exon 2 skipping disappeared
same,decrease of PD-1 mRNA level (nested qPCR),[2]; 10 and 100 aM,> 80%
same,PD-1 mRNA level relative to the negative control level (nested qPCR),[2]; [7],~55%
same,increase of IL-2 mRNA level (qPCR),"[4]; activated Jurkat cells, 10 aM",~140%
same,increase of IL-2 mRNA level (qPCR),"[4]; activated Jurkat cells, 100 aM",120%
same,increase of IL-2 mRNA level (qPCR),[4]; [7],40%
"Fethoc-GG(6)A-A(5)TT-A(5)CC(1O2)-TAA(5)-A-NH2 (GGAATTACCTAAA; splice-switching; all peptide nucleic acid (PNA), [G(6)] at 2, [A(5)] at 4, 7, 12, [C(1O2)] at 9, 5' {Fethoc}, 3' {NH2}; peptide nucleic acid backbone) [IDO-ASO 1]",intensity of the full-length IDO-1 mRNA by nested PCR,[5]; 1 aM,increased
same,intensity of the full-length IDO-1 mRNA by nested PCR,[5]; 10 or 100 zM,decreased
same,IDO1 exon skipping band by nested PCR,[5]; 10 zM or 1 aM,not detected
same,skipping of IDO1 exons 6-7 by nested PCR,[5]; 100 zM,detected
same,decrease of kynurenine secretion,[6]; 1 fM,~40%
same,secretion of kynurenine,[6]; 10 zM to 1 fM except 1 aM,significantly (student's t-test) decreased
